Experimental findings from patent US6495588B2, “Scytonemin and methods of using thereof” (The Regents of the University of California, priority 2000, dated 2002) are described below.

pIC50: −log10 of the molar value.

The target in one assay is T1, CDK1/cyclinB1 (Homo sapiens, UniProt P06493).
T1 construct: made in house
The assay can be described thus: CDK1/cyclinB histone H1 phosphorylation assay. The class given is biochemical. The following applies: 0.1 μM ATP, histone H1 substrate. Here is the method: To determine the effect of SCY on CDK1/cyclinB1 kinase activity, the following assay was conducted. Baculovirus vectors expressing CDK1 and cyclinB1, obtained from Dr. David Morgan of the University of California San Francisco, were expressed and purified by the method described in Desai, et al. (1992) Mol. Cell Biol. 3:571-582, which is herein incorporated by reference, to 80% purity as determined by SDS-PAGE analysis and Coomassie Blue staining. CDK1/cyclinB1 kinase activity was analyzed in a 96-well flashplate assay using 2.0 μg/well bovine histone H1 as a substrate. Reactions were run in 50 μl with 0.25 μg of CDK1/cyclinB1 complex, in reaction buffer (50 mM HEPES, pH 7.4, 10 mM MgCl2, 0.1 μM ATP, 1 mM DTT and 0.5 μCi of [γ^33-P] ATP (final reaction concentrations)), and SCY (1 nM to 10 μM final reaction concentration). The positive control used was […] hymenialdisine (final concentration) in a final vehicle concentration of 1% DMSO.
Reactions were initiated with the addition of ATP and allowed to proceed for 10 minutes at room temperature. The reactions were stopped by washing the plate five times with 300 μl/well of PBS. The plate was then counted on a Packard Top-Count.

Another assay has as its target T2, GST-CHK1 (Homo sapiens, UniProt O14757).
T2 construct: made in house
T2 sequence (O14757 1-476): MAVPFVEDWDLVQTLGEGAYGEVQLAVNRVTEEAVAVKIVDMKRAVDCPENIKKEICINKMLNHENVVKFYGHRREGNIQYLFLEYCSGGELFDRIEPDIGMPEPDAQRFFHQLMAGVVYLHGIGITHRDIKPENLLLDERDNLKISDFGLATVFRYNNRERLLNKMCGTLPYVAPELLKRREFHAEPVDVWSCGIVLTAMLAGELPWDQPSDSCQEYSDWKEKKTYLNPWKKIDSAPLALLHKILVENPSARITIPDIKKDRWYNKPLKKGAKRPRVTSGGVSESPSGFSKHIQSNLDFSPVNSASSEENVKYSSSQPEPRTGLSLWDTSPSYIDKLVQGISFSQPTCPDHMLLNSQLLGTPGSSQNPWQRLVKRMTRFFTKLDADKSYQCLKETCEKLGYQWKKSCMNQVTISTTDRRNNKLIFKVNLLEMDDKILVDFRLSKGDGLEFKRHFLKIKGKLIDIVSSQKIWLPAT
The assay can be described thus: GST-Chk1 activity assay. The class given is biochemical. The following applies: 10 μM cold ATP, GST-cdc25C substrate. As for the experimental part: To determine the effect of SCY on GST-Chk1 activity, the following assay was conducted. GST-Chk1 were expressed and purified using a method previously described in Jackson et al. (2000) Can. Res. 60:566-572, which is herein incorporated by reference. GST-Chk1 was purified to […] purity as determined via SDS-PAGE analysis. The remaining 30% was attributed to free GST. Flashplates were coated with 1 μg GST-cdc25C and 100 μM ATP at 4° C. The plates were washed twice with PBS, then 0.5 μCi [^33P]-γATP, 10 μM cold ATP, and 2 μg GST-CHK1, were added to the wells in kinase reaction buffer comprising 20 mM HEPES (pH 7.4), 50 mM KCl, 10 mM MgCl2, 1 mM EGTA, and 0.5 mM DTT. Activity was measured in the presence of scytonemin (SCY) in 100% DMSO yielding a 4% DMSO final concentration. Reactions were initiated by the addition of the enzyme, incubated at 37° C. for 30 minutes, and stopped by washing the plates five times with PBS. The amount of [^33P]-γATP incorporation was measured on a Packard Top-count.

The test system of assay [1] is rheumatoid synovial fibroblasts (RSFs). The assay can be described thus: [3H]-thymidine incorporation assay, PDGF-BB stimulated rheumatoid synovial fibroblasts. The class given is cell-based, human. The following applies: induced by platelet-derived growth factor (1 nM PDGF-BB); listed as SCY; read-out: IC50 rheumatoid synovial fibroblast proliferation. Here is the method:
To determine the effect of SCY on the proliferation of several cell types, proliferation was measured in response to growth factor or serum by tritiated thymidine uptake. Rheumatoid synovial fibroblasts (RSFs) obtained from Dr. Gene Mochan at PCOM (Philadelphia, Pa.), normal human lung fibroblasts (NHLFs) (Clonetics, San Diego, Calif.), human umbilical vein endothelial cells (HUVECs) (Clonetics, San Diego, Calif.), and Jurkat T cells (ATCC, Rockville, Md.) were plated in 96 well cell culture plates (Falcon, Franklin Lakes, N.J.). About 1.2×10^4 RSF cells/well and about 1×10^4 NHLF cells/well were plated in EMEM (Eagle's Minimum Essential Medium) (Sigma, St. Louis, Mo.) comprising 10 units penicillin-streptomycin (penstrep) (GibcoBRL, Grand Island, N.Y.) and 10% FBS. About 5×10^3 HUVEC cells/well were plated in CSC media (Cell Systems, Seattle, Wash.) with 10% FBS. Fibroblasts were allowed to adhere for about 6 to about 24 hours at 37° C., 5% CO2 and the media was changed to EMEM or CSC, 0.2% FBS and incubated for 24 hours. About 2×10^4 Jurkat T cells/well (ATCC, Rockville, Md.) were plated in RPMI (Gibco BRL, Grand Island, N.Y.), comprising 10% FBS and 10 units penstrep.
All cells were incubated with compound or vehicle (0.5% DMSO) for 15 minutes at room temperature. […] [^3H]-thymidine incorporation into the DNA was measured on a Packard Top-Count.
On the technique in general: Dividing cells build labelled thymidine or BrdU into new DNA.

T1 sequence (P06493 whole entry): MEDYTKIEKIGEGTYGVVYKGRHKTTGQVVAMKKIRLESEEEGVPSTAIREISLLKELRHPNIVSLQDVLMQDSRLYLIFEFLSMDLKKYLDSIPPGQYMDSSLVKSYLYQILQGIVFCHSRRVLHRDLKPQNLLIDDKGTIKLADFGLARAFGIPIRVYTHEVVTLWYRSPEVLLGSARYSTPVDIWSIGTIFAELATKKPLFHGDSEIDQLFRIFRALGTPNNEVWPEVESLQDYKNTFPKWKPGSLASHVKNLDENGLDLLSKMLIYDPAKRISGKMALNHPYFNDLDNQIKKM
T1 sequence (P14635 whole entry partner): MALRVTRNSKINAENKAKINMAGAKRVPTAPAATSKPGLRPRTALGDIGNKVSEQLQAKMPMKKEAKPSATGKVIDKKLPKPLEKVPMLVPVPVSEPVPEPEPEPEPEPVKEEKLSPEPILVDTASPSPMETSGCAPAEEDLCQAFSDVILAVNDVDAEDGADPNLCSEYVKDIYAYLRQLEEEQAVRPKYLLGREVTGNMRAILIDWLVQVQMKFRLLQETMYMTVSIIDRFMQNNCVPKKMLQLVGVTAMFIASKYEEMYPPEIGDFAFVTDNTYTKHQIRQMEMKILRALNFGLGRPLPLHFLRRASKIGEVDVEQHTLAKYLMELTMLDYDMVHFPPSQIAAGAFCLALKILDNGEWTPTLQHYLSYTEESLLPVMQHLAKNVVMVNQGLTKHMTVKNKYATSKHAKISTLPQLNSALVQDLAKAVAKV

scytonemin: the pIC50 against CDK1/cyclinB1 was around 5.52; at GST-CHK1 it was around 5.85; in assay [1], around 5.82.
